The values below come from patent publication US5047419A, “Photodynamic therapy of glioma or mammary carcinoma using seleno- or telluropyrylium salts” (Eastman Kodak Company, priority 1988, dated 1991).

Like-named read-outs stand apart in the source and are kept apart here.

Series [1] is described as follows: Quantum efficiency of singlet oxygen generation in air-saturated solution. It counts as physicochemical. The note with it: air-saturated solution. An excerpt:
(§1) The ability of the dyes of this invention to function as a cancer-treating agent is in part a reflection of the ability of the dye to generate singlet oxygen in air-saturated solution. (As used herein, "air-saturated solution" means a solution of dye exposed to the atmosphere.) In studying a variety of chalcogenopyrylium dyes, only those dyes containing a selenium or tellurium atom show any appreciable generation of singlet oxygen upon irradiation. Fortuitously, selenopyrylium and telluropyrylium dyes have absorption maxima that are shifted to the red relative to their pyrylium and thiopyrylium analogues. That is, not only are these dyes effective in killing cancer cells because of their high quantum efficiency, but also they generally operate at the most preferred wavelengths, namely those of 700 nm or longer. Table III contains examples of chalcogenopyrylium dyes, their quantum efficiencies for singlet oxygen generation, and their absorption maxima. (In this Table, Ph=Phenyl, Me=Methyl, and t-Bu=tertiary butyl.)

Series [2] concerns CV-1 (normal monkey kidney cells). Put plainly: In vitro photodynamic treatment, control CV-1 cells. The note with it: Primates. It counts as cell-based. The method, then:
(§2) Several selenopyrylium dyes and telluropyrylium dyes from Table I that generated singlet oxygen upon irradiation in air-saturated methanol were examined in vitro in mammalian cell cultures for their effectiveness as agents for photodynamic therapy. […] As controls, HSK1 (normal human skin fibroblasts) and CV-1 (normal monkey kidney cells) were used.
(§3) In vitro cell cultures were grown in antibiotic-free growth medium DMEM-F12 supplemented to 10% with fetal bovine serum and adjusted to 4.5 mM with L-glutamine. DMEM-F12 is a 1:1 mixture of Dulbecco's modified Eagle's medium (Gibco) and Ham's nutrient mixture F12 (Gibco). Prior to cell seeding, multi-well plates were blackened with spray paint, coating the external walls of each well to minimize light scattering from well to well. Subconfluent cell cultures were trypsinized and plated at a concentration of 10^5 cells per 2 cm^2 well. Cells were allowed to incubate overnight at 37° C. in a humidified atmosphere before dye and/or light exposure.
(§4) Stock solutions of the chalcogenopyrylium dyes were prepared at 1 mM concentration by sonication in 95% ethanol in the dark. These stock solutions were diluted with growth medium to the desired concentration. Dyes were protected from light throughout the entire experimental procedure until the time for irradiation. Standard treatment time for dye exposure was 1 hour. The dye containing medium was replaced with fresh growth medium prior to irradiation. Eighteen to twenty-four hours later, the remaining metabolically active cells were evaluated by the MTT colorimetric assay and/or cell counting. Assays were performed in triplicate with standard deviations generally of less than 10%. Percent kill was determined from mean optical density of the treated samples and that of the control (untreated) samples for the MTT analysis and from mean cell counts for these two groups for the cell-counting method. (See Table V).
(§5) Near-infrared and visible light from three sources were employed in these assays. Tungsten light (100-200 mW) was used to assess low milliwatt multiple wavelength effects. An argon-pumped dye laser (Model 150 Aurora, Cooper Lasersonics, Inc., Santa Clara, Calif.) with laser dye LDS 751 (Exciton Chemical Co., Inc., Dayton, Ohio) and a peak wavelength of 785±5 nm was coupled by a […] quartz fiberoptic to a microlens assembly that gave a uniform mode of distribution of light intensity. Thirdly, a laser diode (Model 2430-H2, Spectra Diode Laboratories, Inc., San Jose, Calif. with a fixed wavelength of 800±2 nm provided light energy in the near infrared. The diode was coupled by a 400 μm quartz fiberoptic with a clear and polished end. For laser irradiation experiments, the distance of the fiber tip from the well bottom was adjusted so that the laser irradiation exactly covered the 2 cm^2 target area. A distal power meter (Model 2000, Coherent, Inc., Auburn, Calif.) was used to determine the energy output of the laser source.

Test in series [3]: as above
The series is classed as cell-based, monkey. The note with it: monkey, cv-1 kidney cells, dark, read-out: % Surviving Fraction, Dark; for viability at 1 µM: CV1, 1 × 10^-6 M. The method, then: as §2, §3, §4, §5

Series [4] can be described thus: Absorption maxima (λmax) of chalcogenopyrylium dyes. It counts as physicochemical.
Description: as §1

The nature of series [5]: In vitro photodynamic therapy, B-16 cells. The series is classed as cell-based, mouse. The note with it: mouse, b-16 melanoma cells, dark, read-out: % Surviving Fraction, Dark; for viability at 1 µM: B-16, 1 × 10^-6 M. The method, then:
as §2, §3, §4, §5

Series [6] deals with B-16 melanoma (mouse melanoma). The series can be described thus: In vitro photodynamic therapy, B-16 cells. The series is classed as cell-based. The note with it: Mus musculus. The method, then: as §2, §3, §4, §5
For series [7], the system named is FADU (human squamous cell carcinoma). Put plainly: In vitro photodynamic therapy, FADU cells. It counts as cell-based. The note with it: Homo sapiens, read-out: % Surviving Fraction, Light. The method, then: as §2, §3, §4, §5
Series [8] can be described thus: In vitro photodynamic therapy, FADU cells. The series is classed as cell-based, human. The note with it: human, fadu squamous cell carcinoma, FADU, dark, read-out: % Surviving Fraction, Dark; for viability at 1 µM: 1 × 10^-6 M. The method, then:
as §2, §3, §4, §5

Series [9] has as its system U251 (human glioma). Put plainly: In vitro photodynamic therapy, U251 cells. It counts as cell-based. The note with it: Homo sapiens, U-251, read-out: % Surviving Fraction, Light; for viability at 1 µM: U251, 1 × 10^-6 M; for viability at 0.1 µM: U251, 1 × 10^-7 M. The method, then:
as §2, §3, §4, §5

Series [10] in a line: In vitro photodynamic therapy, U251 cells. It counts as cell-based, human. The note with it: human, u251 glioma cells, dark, read-out: % Surviving Fraction, Dark; for viability at 1 µM: U251, 1 × 10^-6 M; for viability at 0.1 µM: U251, 1 × 10^-7 M. Here is the method:
as §2, §3, §4, §5

The subject of series [11] is HSK1 (normal human skin fibroblasts). Put plainly: In vitro photodynamic treatment, control HSK1 cells. It counts as cell-based. The note with it: Homo sapiens, Skin fibroblast, read-out: % Surviving Fraction, Light; for viability at 0.1 µM: HSK1, 1 × 10^-7 M. The method, then: as §2, §3, §4, §5
Test in series [12]: as above
It counts as cell-based, human. The note with it: human, hsk1 skin fibroblasts, dark, read-out: % Surviving Fraction, Dark; for viability at 0.1 µM: HSK1, 1 × 10^-7 M. The method, then: as §2, §3, §4, §5

Series [13] in a line: Stability in solution. The series is classed as physicochemical.
Where [14] appears, read: CV-1, read-out: % Surviving Fraction, Light.
[15] abbreviates: B16, read-out: % Surviving Fraction, Light.
The mark [16] stands for this setting: 15 J cm^-2, source A (tungsten).
Setting [17] is: 50 J cm^-2, source A (tungsten).

In the case of `CC(C)(C)C1=CC(=CC=Cc2cc(C(C)(C)C)[o+]c(C(C)(C)C)c2)C=C(C(C)(C)C)O1.[Cl-]` [C.E. 3, 2,6-Di-t-butyl-4-[3-(2,6-di-t-butyl-4H-pyran-4-ylidene)-1-propen-1-yl]pyrylium chloride, reference compound], in series [1], the “Quantum efficiency of singlet oxygen generation Φ(1O2)” value (“Quantum efficiency” below) is reported as at most 0.001. Moreover, the viability at 1 µM in [2] (CV-1, CV1, 1 × 10^-6 M, 27 J cm^-2, source D (tungsten, 500 nm cutoff), read-out: % Surviving Fraction, Light) worked out at 99%; in [3], 100%; in series [5], 99%; in series [6] (B16, B-16, 1 × 10^-6 M, 27 J cm^-2, source D (tungsten, 500 nm cutoff), read-out: % Surviving Fraction, Light) it was 99%; in [7] (FADU, 1 × 10^-6 M, 27 J cm^-2, source D (tungsten, 500 nm cutoff)), 99%; in series [8], 99%. Moreover, the “Absorption maximum λmax” value in [4] (H2O) is reported as 595 nm.
As to `CC(C)(C)C1=CC(=CC=Cc2cc(C(C)(C)C)[se+]c(C(C)(C)C)c2)C=C(C(C)(C)C)[Te]1` [Dye 1], the “Quantum efficiency” value in series [1] was determined as 0.09. The viability at 0.05 µM is 99% in [2] (setting [14]); 100% in series [3] (CV1, 5 × 10^-8 M); 99% in [5] (B-16, 5 × 10^-8 M); 0.03% in series [6] (setting [15]); 0.1% in [7] (FaDu); 99% in [8] (5 × 10^-8 M). The viability at 0.05 µM stood at 65% in series [9] (U251, 5 × 10^-8 M, 15 J cm^-2, source C (diode laser 800 nm)); 85% in series [10] (U251, 5 × 10^-8 M); 97% in series [11] (HSK1, 5 × 10^-8 M, 15 J cm^-2, source C (diode laser 800 nm)); 99% in [12] (HSK1, 5 × 10^-8 M). The “Absorption maximum λmax” value in series [4] (CH2Cl2) is on record as 786 nm.
On to `CC(C)(C)C1=CC(=CC=Cc2cc(C(C)(C)C)[te+]c(C(C)(C)C)c2)C=C(C(C)(C)C)[Te]1` [Dye 4], for which the “Quantum efficiency” value in series [1] came out at 0.13. Also, the viability at 1 µM is 95% in [2] (setting [14]); 99% in series [3]; 99% in [5]; 30% in [6] (setting [15]); 75% in series [9] (50 J cm^-2, source B (dye laser 785 nm)); 100% in series [10]. For the same molecule, in series [4] (CH2Cl2), the “Absorption maximum λmax” value is recorded as 830 nm.
For the molecule `CC(C)(C)C1=CC(=CC=Cc2cc(C(C)(C)C)[o+]c(C(C)(C)C)c2)C=C(C(C)(C)C)[Te]1` [Dye 5], the “Quantum efficiency” value in series [1] was 0.06. Also, the viability at 0.1 µM in series [2] (setting [14]) was found to be 99%; in [3] (CV1, 1 × 10^-7 M) it was 100%; in [5] (B-16, 1 × 10^-7 M), 99%; in series [6] (setting [15]), 0.1%; in [7] (FaDu) it was 0.05%; in series [8] (1 × 10^-7 M) it was 99%. For the same molecule, the viability at 0.1 µM in [9] (setting [16]) amounted to 58%; in series [10], 90%; in series [11] (setting [16]), 99%; in series [12] it was 99%. The “Absorption maximum λmax” value in [4] (H2O) turned out to be 700 nm.
For the molecule `CC(C)(C)C1=CC(=CC=Cc2cc(C(C)(C)C)[o+]c(C(C)(C)C)c2)C=C(C(C)(C)C)[Se]1` [Dye 9], the “Quantum efficiency” value in [1] amounted to 0.005. Besides, the viability at 1 µM turned out to be 99% in series [2] (setting [14]); 100% in series [3]; 99% in [5]; 0.2% in series [6] (setting [15]); 0.2% in series [7] (FaDu); 99% in series [8]. Besides, the “Absorption maximum λmax” value in [4] (H2O) came out at 660 nm.
On to `CC(C)(C)C1=CC(=Cc2cc(C(C)(C)C)[te+]c(C(C)(C)C)c2)C=C(C(C)(C)C)[Te]1` [Dye 12], for which, in series [1], the “Quantum efficiency” value is on record as 0.07. For the same molecule, the “Absorption maximum λmax” value in series [4] (H2O) was 705 nm. Further, the viability at 1 µM in [9] (setting [17]) was 1%; in series [10], 55%. In addition, the viability at 0.1 µM in series [9] (setting [17]) amounted to 74%; in series [10], 83%; in series [11] (setting [17]), 99%; in [12], 100%.
With `C(=CC=C1C=C(c2ccccc2)[Te]C(c2ccccc2)=C1)C=Cc1cc(-c2ccccc2)[te+]c(-c2ccccc2)c1` [Dye 16], the “Quantum efficiency” value in series [1] worked out at 0.005. Moreover, in series [4] (MeOH), the “Absorption maximum λmax” value was determined as 1060 nm. For the same molecule, the Stability in solution result in series [13] was “tended to be unstable in solution”.
